# Entries after “also recorded” stand apart in the source; their conditions may differ.
# What was measured:
# HEK293T cells = test: Ca2+ induction assay (Fluo-8); format: cell-based, human; settings: Fluo-8, 0.25, 2.5, 25 µg/mL, partly already at 2.5 µg/mL, n = 4
# Protocol: Figure 2 Melittin derivates influence cellular Ca^2+ and IP1 levels. (A) For the Ca^2+ induction assay, Fluo-8 pretreated HEK293-T cells were incubated with melittin derivates in the indicated concentrations and the fluorescence was detected. (B) For the Ca^2+ inhibition assay, Fluo-8 pretreated HEK293-T cells were incubated with peptides in the indicated concentrations for 30 min, stimulated with 5 µM ionomycin, and the fluorescence was detected. (C) IP3 has a short lifetime and is rapidly degraded to IP1; therefore, IP1 was determined. For the IP1/IP3 induction assay (left panel), HEK293T cells were incubated with melittin peptides in the indicated concentration for 2 h, a detection reagent was added, and the fluorescence resonance energy transfer signal was detected. For the IP1/IP3 inhibition assay (right panel), HEK293T cells were incubated with melittin peptides in the indicated concentration for 30 min and stimulated with 20 µM ionomycin for 1.5 h. After the addition of the detection reagent, the fluorescence resonance energy transfer signal was detected. Data are expressed as mean ± SEM. (A, B, C (left)) n = 4, (C (right)) n = 3. * p ≤ 0.05 versus control.
# For analysis, 5 × 10^4 HEK293 cells or 2 × 10^4 MDA-MB-231 cells were seeded in a 96-well poly-D-lysine plate, incubated at 37 °C for 24 h, and treated with 4 µM Fluo-8-AM in HBSS for 1 h at 37 °C. After 1 h, the Fluo-8/HBSS was replaced by 100 µL HBSS. Five images per second were taken using an ImageXpress Micro Confocal High Content Imaging System (Molecular Device, San Jose, CA, USA). Melittin peptides (0.25, 2.5, and 25 µg/mL), DMSO (negative control), or 5 µM ionomycin (Sigma Aldrich; Taufkirchen, Germany) (positive control) were added to the cells. For the next 20 s, an image was obtained every second. For the inhibition assay, the peptide-treated samples (30 min) were treated with 5 µM ionomycin and for the next 20 s, an image was obtained every second. The data were analyzed with the MetaXpress Software Version 6 (Molecular Devices, San Jose, CA, USA). A threshold of fluorescence intensity was defined using cells before treatment, and all cells with a fluorescence signal above the threshold level were counted. For the induction assay, the number of cells above the threshold in the toxin-treated samples were related to the cells in the DMSO-treated sample. For the inhibition assay, the number of cells above the threshold in the melittin-treated samples were related to the cells in the ionomycin-treated sample.
# non-cancer cells = test: Viability of non-cancer cells (RAW264.7, HEK293T, HMEC, HUVEC), overall statements; format: cell-based
# Text: First, we studied the activity of the melittin peptides on the viability of non-cancer cells. The toxicity of all melittin variants was investigated in monocyte/macrophage-like cells (RAW264.7), human embryonic kidney 293 cells (HEK293T), human microvascular endothelial cells (HMEC), and primary human umbilical vein endothelial cells (HUVECs).
# For assessing the cytotoxicity of all peptides, various cell types and assays were utilized. To determine the cell viability of HEK293T and RAW246.7 cells, the Orangu^TM assay (Cell Guidance Systems Ltd., Cambridge, UK) was used, as previously described. 2 × 10^5 HEK293T or 2 × 10^5 RAW246.7 were seeded in 96-well plates. […] After incubation, absorbance was measured at a wavelength of 450 nm with a reference at 650 nm at an EnSpire 2300 Multimode Plate Reader (Perkin Elmer, Lübeck, Germany). To calculate cell viability, the absorbance of vehicle-treated cells was set to 100%, and the melittin derivates-treated samples were correlated to them.
# HMECs (2000 cells/well) were seeded into collagen-coated 96-well plates and grown for 24 h. […] Absorbance was measured at 590 nm using a plate reader (Infinite F200Pro, Tecan, Männedorf, Switzerland). The proliferation percentage was calculated by normalizing to the untreated control (24 h) and compared to the DMSO control (0.03%) of 72 h incubation. […]
Substance,induction of Ca2+ release (HEK293T cells),"reduction of viability (non-cancer cells; Discussion, cell line not given) [%]","viability of non-cancer (healthy) cells (non-cancer cells; summary statement, Figure 6)"
"melittin [Melt, reference compound]",induced a significant release of Ca^2+; also recorded: induce Ca^2+ release,90,
xylopin [Xac4],induce Ca^2+ release,,without harming healthy cells
